Consider two compounds from PMC8070745, “FEN1 Blockade for Platinum Chemo-Sensitization and Synthetic Lethality in Epithelial Ovarian Cancers” (Cancers, 2021).

For data set [1], the target named is T1, Recombinant human FEN1 protein (Homo sapiens, UniProt P39748).
T1 construct: made in house
Put plainly: radio-labeled FEN1 cleavage assay. It is filed as biochemical. Conditions: 3 nM FEN1, 37 °C, 10 min.

The test system of data set [2] is A2780cis cells. The experiment in a line: Clonogenic assay, A2780cis. The data set is classed as cell-based, human. On the procedure: (§1) Clonogenic assay: In the clonogenic assay (colony formation assays), 32 cells/cm2 were seeded in 6-well plates and left at 37°C in a 5% CO2 atmosphere. Cisplatin (5µM) and/or FEN1i (10µM) and/or Importazole (5 µM, Selleckem, S8446 ) were added at the indicated concentrations and the plates were left at 37 °C in a 5% CO 2 atmosphere for 14 days. Later, the plates were washed with PBS, fixed and stained with a crystal violet, acetic acid and methanol solution and colonies were counted. […]

For data set [3], the system named is PEO4 cells. Put plainly: Clonogenic assay, PEO4. The data set is classed as cell-based, human. On the procedure: as §1
In data set [4] the test system is PEO1 cells. Put plainly: Clonogenic assay, PEO1. It is filed as cell-based, human. On the procedure:
as §1

Data set [5] concerns PEO1R cells. Put plainly: Clonogenic assay, PEO1R. The data set is classed as cell-based, human. The conditions noted are these: vs parental PEO1 cells. Here is the method:
as §1

The test system of data set [6] is MRE11 deficient A2780cis cells. Put plainly: FEN1 inhibitor cytotoxicity, MRE11 deficient A2780cis. The conditions noted are these: vs A2780cis control. The data set is classed as cell-based, human.
Data set [7] relates to PEO1R spheroids. Put plainly: 3D spheroid assay, PEO1R. It is filed as cell-based, human. The conditions noted are these: vs PEO1 spheroids. On the procedure: with ice cold PBS and fixed in 70% ethanol for 1h at -20°C. After removal of the fixative solution by centrifugation, cells were stained with 2 µg/ml of phospho-Histone (γH2AX) Ser139 (16202A, Millipore, UK) to detect DSBs.
Cell cycle progression: Cells were treated with 20 µg/ml RNase A (12091021, Invitrogen) and then 10 µg/ml Propidium Iodide (P4170, Sigma Aldrich) was added to determine the cell cycle distribution. The samples were analysed on a Beckman-Coulter FC500 flow cytometer using a 488nm laser for excitation and emission data for PI collected using a 620nm bandpass filter (FL3) and a 525nm bandpass filter (FL1) for FITC-anti-phospho-Histone H2A.X.
Apoptosis detection: Annexin V detection kit (556547, BD Biosciences) was used to quantify apoptotic cells. Briefly, cells were trypsinized, washed with PBS and the cellular pellet was re-suspended in Anexin Binding Buffer (1×). […] All the samples were analysed on a Beckman-Coulter FC500 flow cytometer. The percentage of apoptotic cells was determined (late apoptotic = FITC-Annexin V positive, PI positive early apoptotic = FITC-Annexin V positive, PI negative; live cells = FITC-Annexin V negative, PI negative) and compared for untreated and treated samples. […]
To quantify cell viability, LIVE/DEAD Viability/Cytotoxicity Kit (L3224, Thermo Fisher Scientific) was used. […] At least 10 spheroids were measured. […]

For data set [8], the system named is FEN1. On the set-up: method as in PMID 21062821. Conditions: read-out: IC50 for FEN1 inhibition; cited from earlier work.

T1 sequence (P39748 whole entry): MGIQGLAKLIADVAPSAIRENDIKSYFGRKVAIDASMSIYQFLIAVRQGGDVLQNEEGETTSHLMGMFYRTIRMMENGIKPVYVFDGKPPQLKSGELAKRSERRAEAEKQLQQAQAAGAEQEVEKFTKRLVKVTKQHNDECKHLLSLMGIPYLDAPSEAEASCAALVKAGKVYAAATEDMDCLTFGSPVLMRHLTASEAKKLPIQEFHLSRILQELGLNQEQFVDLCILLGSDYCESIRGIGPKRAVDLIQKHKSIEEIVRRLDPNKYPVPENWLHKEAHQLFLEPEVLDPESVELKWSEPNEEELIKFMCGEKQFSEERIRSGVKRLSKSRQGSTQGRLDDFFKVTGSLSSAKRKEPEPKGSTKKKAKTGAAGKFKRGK

The IC50 is the point on the concentration scale where inhibition reaches its midpoint. For the compound `Cc1csc2c1c(=O)n(O)c(=O)n2-c1ccccc1` [PTPD, 3-hydroxy-5-methyl-1-phenylthieno [2,3 d]pyrimidine-2,4(1H,3H)-dione], in data set [1], the “FEN1 inhibition in cleavage assay” value is listed as “confirmed FEN1 inhibition”. Also, in data set [2] (10 µM), the “cytotoxicity of FEN1i monotherapy” value is listed as “non-toxic”. For the same compound, the “effect on cisplatin cytotoxicity” value in data set [2] (FEN1i 10 µM plus cisplatin) is reported as “significantly enhanced the cytotoxicity of cisplatin”; in data set [3] (FEN1i plus cisplatin), “potentiated cisplatin cytotoxicity”. The “sensitivity to FEN1 inhibitor” value is “more sensitive to FEN1 inhibition in comparison to PEO4 cells” in data set [4] (BRCA2 deficient PEO1 vs BRCA2 proficient PEO4), “resistant” in data set [5] and “did not observe increased sensitivity” in data set [6]. In addition, the “spheroid sensitivity to FEN1 inhibitor” value in data set [7] is on record as “resistant”. In addition, in data set [8], the IC50 is 22 nM.
With `N.N.[Cl][Pt][Cl]` [cisplatin], the cisplatin sensitivity entry in data set [2] is “cisplatin-resistant”; in data set [3] it was “cisplatin resistant”; in data set [4] it was “cisplatin sensitive”. Also, the sensitivity to cisplatin entry in data set [5] is on record as “resistant”. The “spheroid sensitivity to cisplatin” value in data set [7] is reported as “resistant”.
